# Species on record: Rattus norvegicus
# Experiment: Open TG-GATES - Regimen: Single
# Type: toxicity, organism-based, Sprague-Dawley
# Set-up: regimen Single, gender Male, age 6 weeks
# Details: in vivo, po, 5 mg/kg, route gavage, dose level Low; for APTT / Bas / Eos / Fbg / Hb / Ht / Lym / MCH / MCHC / MCV / Mono / Neu / PT / Plat / RBC / Ret / WBC: tissue Blood; for LIVER: tissue Liver; for A/G / ALP / ALT / AST / BUN / CRE / Ca / Cl / DBIL / GLC / IP / K / LDH / Na / PL / RALB / TBIL / TC / TG / TP / gamma-GTP: tissue Plasma
smiles,measurement,setting,value
C=C(C)[C@H]1Cc2c(ccc3c2O[C@@H]2COc4cc(OC)c(OC)cc4[C@@H]2C3=O)O1 [ROTENONE],TERMINAL_BW,3 h,199.1 g
same,APTT,3 h,15.7 s
same,Bas,3 h,0%
same,Eos,3 h,1%
same,Fbg,3 h,223 mg/dL
same,Hb,3 h,12.6 g/dL
same,Ht,3 h,38.3%
same,Lym,3 h,77.2%
same,MCH,3 h,21.2 pg
same,MCHC,3 h,33%
same,MCV,3 h,64.3 fL
same,Mono,3 h,7.2%
same,Neu,3 h,14.6%
same,PT,3 h,12.3 s
same,Plat,3 h,119.4 x10_4/uL
same,RBC,3 h,595.4 x10_4/ul
same,Ret,3 h,8.6%
same,WBC,3 h,104.4 x10_2/uL
same,LIVER,3 h,9.3 g
same,A/G,3 h,2.1
same,ALP,3 h,1388.6 IU/L
same,ALT,3 h,39 IU/L
same,AST,3 h,64.8 IU/L
same,BUN,3 h,13.8 mg/dL
same,CRE,3 h,0.4 mg/dL
same,Ca,3 h,11.5 mg/dL
same,Cl,3 h,103.8 meq/L
same,DBIL,3 h,0.012 mg/dL
same,GLC,3 h,189.2 mg/dL
same,IP,3 h,8.4 mg/dL
same,K,3 h,4.3 meq/L
same,LDH,3 h,112.6 IU/L
same,Na,3 h,140.6 meq/L
same,PL,3 h,142.2 mg/dL
same,RALB,3 h,3.7 g/dL
same,TBIL,3 h,0.04 mg/dL
same,TC,3 h,89.6 mg/dL
same,TG,3 h,74.8 mg/dL
same,TP,3 h,5.4 g/dL
same,gamma-GTP,3 h,1 IU/L
same,TERMINAL_BW,6 h,191.9 g
same,APTT,6 h,17.5 s
same,Bas,6 h,0%
same,Eos,6 h,1%
same,Fbg,6 h,227.6 mg/dL
same,Hb,6 h,12.9 g/dL
same,Ht,6 h,39.6%
same,Lym,6 h,77.4%
same,MCH,6 h,21 pg
same,MCHC,6 h,32.8%
same,MCV,6 h,64.1 fL
same,Mono,6 h,4.2%
same,Neu,6 h,17.8%
same,PT,6 h,12.6 s
same,Plat,6 h,127.8 x10_4/uL
same,RBC,6 h,618.2 x10_4/ul
same,Ret,6 h,8.4%
same,WBC,6 h,86.8 x10_2/uL
same,LIVER,6 h,8.4 g
same,A/G,6 h,2.3
same,ALP,6 h,1155.6 IU/L
same,ALT,6 h,36.8 IU/L
same,AST,6 h,67.6 IU/L
same,BUN,6 h,10.6 mg/dL
same,CRE,6 h,0.4 mg/dL
same,Ca,6 h,11 mg/dL
same,Cl,6 h,104.6 meq/L
same,DBIL,6 h,0.01 mg/dL
same,GLC,6 h,182.8 mg/dL
same,IP,6 h,8.9 mg/dL
same,K,6 h,4.3 meq/L
same,LDH,6 h,86.6 IU/L
same,Na,6 h,140 meq/L
same,PL,6 h,133.4 mg/dL
same,RALB,6 h,3.7 g/dL
same,TBIL,6 h,0.046 mg/dL
same,TC,6 h,82.2 mg/dL
same,TG,6 h,48.6 mg/dL
same,TP,6 h,5.4 g/dL
same,gamma-GTP,6 h,1 IU/L
same,TERMINAL_BW,9 h,190.6 g
same,APTT,9 h,16.3 s
same,Bas,9 h,0%
same,Eos,9 h,1%
same,Fbg,9 h,218.6 mg/dL
same,Hb,9 h,12.9 g/dL
same,Ht,9 h,39.5%
same,Lym,9 h,66.8%
same,MCH,9 h,21.2 pg
same,MCHC,9 h,32.6%
same,MCV,9 h,65.1 fL
same,Mono,9 h,10.6%
same,Neu,9 h,22.2%
same,PT,9 h,12.3 s
same,Plat,9 h,123.8 x10_4/uL
same,RBC,9 h,606.2 x10_4/ul
same,Ret,9 h,8.4%
same,WBC,9 h,86.2 x10_2/uL
same,LIVER,9 h,8.1 g
same,A/G,9 h,2.4
same,ALP,9 h,1273.6 IU/L
same,ALT,9 h,29.2 IU/L
same,AST,9 h,63 IU/L
same,BUN,9 h,10.2 mg/dL
same,CRE,9 h,0.3 mg/dL
same,Ca,9 h,11.1 mg/dL
same,Cl,9 h,104.6 meq/L
same,DBIL,9 h,0.008 mg/dL
same,GLC,9 h,183.4 mg/dL
same,IP,9 h,10.2 mg/dL
same,K,9 h,4.2 meq/L
same,LDH,9 h,102.8 IU/L
same,Na,9 h,139.4 meq/L
same,PL,9 h,129.6 mg/dL
same,RALB,9 h,3.8 g/dL
same,TBIL,9 h,0.044 mg/dL
same,TC,9 h,78 mg/dL
same,TG,9 h,42.4 mg/dL
same,TP,9 h,5.4 g/dL
same,gamma-GTP,9 h,1 IU/L
same,TERMINAL_BW,24 h,213.3 g
same,APTT,24 h,15.6 s
same,Bas,24 h,0%
same,Eos,24 h,1%
same,Fbg,24 h,208.6 mg/dL
same,Hb,24 h,12.8 g/dL
same,Ht,24 h,39%
same,Lym,24 h,69%
same,MCH,24 h,21.2 pg
same,MCHC,24 h,32.8%
same,MCV,24 h,64.7 fL
same,Mono,24 h,10%
same,Neu,24 h,19.8%
same,PT,24 h,12 s
same,Plat,24 h,123.2 x10_4/uL
same,RBC,24 h,602.8 x10_4/ul
same,Ret,24 h,8.5%
same,WBC,24 h,98.2 x10_2/uL
same,LIVER,24 h,10.5 g
same,A/G,24 h,2.4
same,ALP,24 h,1417.6 IU/L
same,ALT,24 h,40.4 IU/L
same,AST,24 h,71 IU/L
same,BUN,24 h,15.6 mg/dL
same,CRE,24 h,0.4 mg/dL
same,Ca,24 h,11.5 mg/dL
same,Cl,24 h,103.2 meq/L
same,DBIL,24 h,0.014 mg/dL
same,GLC,24 h,187.2 mg/dL
same,IP,24 h,7.7 mg/dL
same,K,24 h,4.6 meq/L
same,LDH,24 h,106.6 IU/L
same,Na,24 h,139.4 meq/L
same,PL,24 h,158.8 mg/dL
same,RALB,24 h,3.9 g/dL
same,TBIL,24 h,0.034 mg/dL
same,TC,24 h,86.2 mg/dL
same,TG,24 h,146.8 mg/dL
same,TP,24 h,5.6 g/dL
same,gamma-GTP,24 h,0.6 IU/L
